# Values quoted from earlier work in US20030054020A1, “Method and composition for reducing sebum secretion in mammals” (priority 2001, published 2003).
# Tested on: human sebaceous glands
smiles,measurement,value
CC1=C(/C=C/C(C)=C/C=C/C(C)=C\C(=O)O)C(C)(C)CCC1 [13-cis-retinoic acid],Reduction of the size of human sebaceous glands,up to 90%
